Measurements published in US9051248B2, “Methods, compounds, and compositions for delivering 1,3-propanedisulfonic acid” (BHI Limited Partnership, priority 2009, dated 2015).
Read-outs that look alike come from different tables or passages of the source.

Key:
[1] = PK study in rats (1,3PDS plasma AUC after oral administration of prodrugs); details: rat plasma, oral gavage, dose molar equivalent to 100 mg/kg 1,3PDS(2Na)
Description: (§4) For 1,3PDS(2Na), the concentration in the dosing formulation was standardized to such a level that the dose would be 100 mg/kg (or 0.4 mmol/kg) for in vivo protocol specified dosing volume in a particular animal species. For a prodrug, the weight of sample in the dosing formulation varied based on molecular weight in such a way that equimolar dose (0.4 mmol/kg) for all the prodrugs would be administered when given same volume of dosing formulation to the animals. The dosing volume used for was 10 mL/kg for rats and monkeys, and 5 mL/kg for ferrets; or the concentration of dosing formulation was 0.04 mmol/mL for rats and monkeys, and 0.08 mmole/mL for ferrets. The vehicles used can either be water, 0.5% Methocel™ in water or 2% benzyl alcohol in corn oil. The dosing solution can either be a solution, a suspension or an emulsion. For different levels of doses, the amounts of the compounds used in the dosing formulation preparation were adjusted accordingly.
(§5) One group of four male Sprague-Dawley rats of age 7-9 weeks (body weight of 200-300 g) were fasted for 15 to 17 h before being dosed through oral gavage administration with the dosing solution/suspension prepared from test compounds according to Example 40 at a dose specified in Table 5 in a concentration adjusted to a dosing volume of 10 ml/kg-body weight. Food was supplied two hours post dose. Blood samples (200 μL blood) were collected into Sarstedt micro tubes (EDTA K3E/0.5 mL) from the jugular vein of each animal (4 animals/group) at pre-dose and at the following time-points of post-dose: 15 min., 30 min., 1 h, 2 h, 4 h, 6 h, 8 h, 12 h, and 24 h. The collected blood samples were kept on ice and then centrifuged at 4° C. at a minimum speed of 3000 rpm (1620G) for 10 min to prepare the plasma samples. The plasma samples were stored at −80° C. until analysis. An aliquot of dosing formulation was also taken prior to the dosing and stored at −20° C. for analysis.
(§6) 1,3PDS was extracted from an aliquot of rat, mouse, ferret or monkey plasma using protein precipitation and then injected into a liquid chromatograph equipped with a tandem mass spectrometry detector. Quantification was done by peak area ratio method. A weighted (1/X^2) linear regression was performed to back calculate the concentration of the analyte.
(§7) For the various pharmacokinetic studies conducted in rats, ferrets and monkeys, plasma (and blood) concentration-time data for the prodrug and 1,3PDS were analyzed by non-compartmental analysis (NCA) using the software program WinNonlin® Professional Version 5.2.1. In order to conduct the NCA, at least 3 measurable concentrations had to be available in a concentration-time profile. The following pharmacokinetic parameters were determined for plasma (or blood) data: Cmax, Tmax, AUC0-Tlast, AUC0-∞, λz, and T1/2. Since the prodrugs and 1,3PDS were administered at equimolar doses, the effect of the prodrugs on the bioavailability of 1,3PDS was assessed by comparing the Cmax and AUC of 1,3PDS after administering a prodrug with that after administering 1,3PDS.

[2] = rat, in vivo, po, 100 mg/kg
Description: as §4, §5, §6, §7

[3] = Simulated gastric fluid (SGF) stability; format: in vitro ADME; details: SGF pH 1.5 with pepsin, 37° C.
Description: (§1) The objective of this test was to determine the stability of the prodrugs in simulated gastric fluid (SGF) and water at 37° C. up to 2 hours and in water at room temperature up to 24 hours.
(§2) Simulated gastric fluid and water samples were incubated in a shaking water bath at 37° C. for up to 2 hours. The compound (prodrug) was added at Time-point 0. At each selected time point (refer to table), sample aliquots were withdrawn and analyzed to determine the concentration of 1,3-propanedisulfonic acid (1,3PDS). The concentrations of 1,3PDS were calculated based on their respective peak area. The % appearance of 1,3PDS was determined by the amounts of compound determined at each time point compared to nominal concentration (100%) of 1,3PDS generated by 100% of the prodrug (equivalent concentration).
Amounts of 0.2 g of sodium chloride and 0.32 g of pepsin were weighted and transferred into a 100-mL volumetric flask. Approximately 50 mL of deionized water was added and the mixture well mixed. A volume of 700 μL of hydrochloric acid was added, and the volume completed to 100 mL with deionized water. The resulting mixture was transferred in a polypropylene bottle and pH measured (pH=1.5).
A fresh stock solution at approximately 2 mg/mL of the compound was prepared. One stability solution at 200 μg/mL in the SGF was prepared (sample referred to as Tube A). […] Immediately after preparation, each 200 μg/mL solution was diluted in triplicates to 20 μg/mL in deionized water and analyzed using LC-MS/MS method (Time-point 0). […] At each specific time point of incubation, 3 aliquots (triplicate) of 50 μL were removed, diluted in 450 μL of water and analyzed using LC-MS/MS method. […]
(§3) The concentrations of 1,3PDS were calculated based on response of the reference samples and their respective peak area response. The % appearance of 1,3PDS was determined by the amounts of compound determined at each time point compared to expected nominal concentration (100%) of 1,3PDS generated by 100% of the prodrug (equivalent concentration).

[4] = Water stability (conversion of prodrug to 1,3PDS); format: physicochemical; details: deionized water; for Conversion to 1,3PDS (%) 1 h / Conversion to 1,3PDS (%) 2 h: 37° C.; for Conversion to 1,3PDS (%) 0 h / Conversion to 1,3PDS (%) 24 h: room temperature; for Conversion to 1,3PDS (%) 0 h: 200 μg/mL
Description: as §1, §2
A fresh stock solution at approximately 2 mg/mL of the compound was prepared. One stability solution at 200 μg/mL in the SGF was prepared (sample referred to as Tube A). A stability solution at 200 μg/mL in deionized water was prepared (sample referred to as Tube B). Immediately after preparation, each 200 μg/mL solution was diluted in triplicates to 20 μg/mL in deionized water and analyzed using LC-MS/MS method (Time-point 0). Thereafter, the incubation of tubes A and B was continued in the shaking water bath at 37° C. for 1 and 2 hours while one aliquot of tube B was kept at room temperature for 24 hours. At each specific time point of incubation, 3 aliquots (triplicate) of 50 μL were removed, diluted in 450 μL of water and analyzed using LC-MS/MS method. In parallel, 3 reference samples of 1,3PDS at 100, 10 and 1 μg/mL were prepared, diluted in triplicate in water and injected at the beginning and at the end of the batch. These samples were considered as reference samples.
as §3

[5] = Human whole blood stability; format: in vitro ADME; details: fresh human whole blood, 37° C.; for Conversion to 1,3PDS (% by molar ratio) 0 h: about 100 μg/mL
Description: The objective of this test was to determine the stability of the prodrugs in fresh human whole blood at different time-points (0, 0.5, 1, 4, 24 hours). Blood samples were incubated in a shaking water bath at 37° C. for up to 24 hours. The compound (prodrug) was added at Time-point 0, and sample aliquots were withdrawn and analyzed at each time point to determine the concentration of 1,3PDS. If possible, the loss of compound was determined by the amounts of compound determined at each time point compared to the amount determined at Time-point 0. To eliminate the conversion due to the matrix, a special Time-point 0 was prepared in pre-extracted blood sample.
Approximately 2.5 mL of whole blood was incubated in a gently shaking water bath at 37° C. for 15 minutes. Two (2) mL of the pre-incubated whole blood were aliquoted in an eppendorf tube. A 100 μL aliquot of blood was removed and 100 μL of the compound Stock Solution was added. The solution was mixed by inversion. This sample was referred to as Tube A. The final concentration of the compound in tube A was approximately at 100 μg/mL. Immediately after mixing, 100 μL of Tube A was aliquotted into 3 different eppendorf tubes. These samples were extracted as described in the “Extraction Procedure” Section. These samples were referred to Time-point 0. Thereafter, the incubation of Tube A was continued in the shaking water bath at 37° C. for 0.5, 1, 4 and 24 hours. At each specific time point of incubation, aliquots (triplicate) of 100 μL were removed and extracted as described in the “Extraction Procedure” Section. To avoid potential further degradation of compound and/or possible degradation products, the aliquot extracts were kept on ice until analysis. After extraction, samples were analyzed using LC-MS/MS method.
A volume of 300 μL of cold-ice acetonitrile was added to a 1.5 mL eppendorf tube and kept on ice until utilization. 100 μL of the sample to be extracted was added and the mix was vortexed (acetonitrile and blood). The sample was centrifuged at 16250×g (13200 rpm on IEC centrifuge with eppendorf rotor) for 5 minutes. A volume of 250 μL of the supernatant was transferred to another tube and evaporated to dryness under a nitrogen stream. The residue was reconstituted with the mobile phase. This sample was then analyzed according to 1,3PDS specific methods.
as §3, with “the nominal concentration” for “response”, “calibration standards” for “reference samples”, “ratio. A linear regression using a weight of 1/x^2 is used to derive the concentration of 1,3PDS.” for “response.”, “to” for “to expected”

[6] = vehicle 2 0.5% Methocel in water

## CC(CO)(CO)COS(=O)(=O)CCCS(=O)(=O)O [A68(Na)]
[1]; [6]
  1,3PDS AUC0-Tlast: BLLQ

## CCOP(=O)(OCC)OCC(C)(C)COS(=O)(=O)CCCS(=O)(=O)[O-].[Na+] [A66(Na)]
[1]; [6]
  1,3PDS AUC0-Tlast: BLLQ

## CC(C)(COS(=O)(=O)CCCS(=O)(=O)OCC(C)(C)[N+](=O)[O-])[N+](=O)[O-] [Compound B72]
[2]
  1,3PDS AUC0-Tlast: BLLQ

## CC(C)(C#N)COS(=O)(=O)CCCS(=O)(=O)OCC(C)(C)C#N [Compound B71]
[1]; [6]
  1,3PDS AUC0-Tlast: BLLQ

## O=S(O)CCCS(=O)O [P1(2Na)]
[1]; [6]
  1,3PDS AUC0-Tlast: BLLQ

## COC(=O)c1ccccc1OS(=O)(=O)CCCS(=O)(=O)O [A32(Na)]
[3]; 0 h
  Conversion to 1,3PDS (%) 0 h: 0.0%
[3]; 1 h
  Conversion to 1,3PDS (%) 1 h: 0.0%
[3]; 2 h
  Conversion to 1,3PDS (%) 2 h: 0.0%
[4]
  Conversion to 1,3PDS (%) 1 h: 0.1%
  Conversion to 1,3PDS (%) 2 h: 0.1%
  Conversion to 1,3PDS (%) 0 h: 0.0%
  Conversion to 1,3PDS (%) 24 h: 0.0%
[1]; vehicle 1 water
  1,3PDS AUC0-Tlast: 1097 ng·h/mL
[5]
  Conversion to 1,3PDS (% by molar ratio) 0.5 h: 0.1 % by molar ratio
  Conversion to 1,3PDS (% by molar ratio) 1 h: 0.2 % by molar ratio
  Conversion to 1,3PDS (% by molar ratio) 4 h: 0.4 % by molar ratio
  Conversion to 1,3PDS (% by molar ratio) 24 h: 2.0 % by molar ratio
  Conversion to 1,3PDS (% by molar ratio) 0 h: 0.1 % by molar ratio

## CC(C)(C)C(C#N)OS(=O)(=O)CCCS(=O)(=O)OC(C#N)C(C)(C)C (stereo not shown) [Compound B84]
[2]; male, Sprague-Dawley
  1,3PDS AUC0-Tlast: 2953 ng·h/mL

## O=S1(=O)CCCS(=O)(=O)O1 [Compound C1]
[4]
  Conversion to 1,3PDS (%) 1 h: 57.3%
  Conversion to 1,3PDS (%) 2 h: 63.1%
  Conversion to 1,3PDS (%) 0 h: 50.3%
  Conversion to 1,3PDS (%) 24 h: 61.2%
[5]
  Conversion to 1,3PDS (% by molar ratio) 0.5 h: AULQ
  Conversion to 1,3PDS (% by molar ratio) 1 h: AULQ
  Conversion to 1,3PDS (% by molar ratio) 4 h: AULQ
  Conversion to 1,3PDS (% by molar ratio) 24 h: AULQ
  Conversion to 1,3PDS (% by molar ratio) 0 h: AULQ
